EP2790511B1 (Merck Sharp & Dohme Corp., priority 2011, dated 2013)

What follows are compounds tested against T1, hROMK (hKir1.1) (Homo sapiens, UniProt P48048) (assay: Thallium Flux Assay). Details: HEK293 cells stably expressing hROMK (hKir1.1), FLIPR-Tetra; read-out: Thallium Flux IC50.
T1 construct: expressed in transfected cells
T1 sequence (P48048 1-391): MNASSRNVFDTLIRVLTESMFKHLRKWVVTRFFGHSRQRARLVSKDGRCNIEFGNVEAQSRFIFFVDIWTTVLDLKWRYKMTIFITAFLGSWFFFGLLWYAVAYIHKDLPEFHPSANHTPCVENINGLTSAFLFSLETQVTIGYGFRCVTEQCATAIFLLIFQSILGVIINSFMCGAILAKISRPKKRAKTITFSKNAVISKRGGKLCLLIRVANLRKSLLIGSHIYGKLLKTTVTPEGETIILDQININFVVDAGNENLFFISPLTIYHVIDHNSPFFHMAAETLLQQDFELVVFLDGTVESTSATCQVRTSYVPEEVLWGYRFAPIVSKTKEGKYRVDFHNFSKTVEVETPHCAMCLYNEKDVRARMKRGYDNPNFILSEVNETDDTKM
Format: cell-based
How it was run: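 HEK293 cells stably expressing hROMK, loaded with FluxOR dye 90 min at ambient temperature, then compound 30 min with 0.3 mM ouabain in probenecid buffer pH 7.4.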

For O=C1OCCc2cc([C@@H]3CN4CCN(C(=O)Cc5cnc(-n6cnnn6)cn5)C[C@H]4CO3)ccc21 [Example 80, 6-[(3R,9aS)-8-{[5-(1H-tetrazol-1-yl)pyrazin-2-yl]acetyl}octahydropyrazino[2,1-c][1,4]oxazin-3-yl]-3,4-dihydro-1H-isochromen-1-one], which IC50 is on record?
Its IC50 is 500 nM.

N#Cc1cc([C@@H]2CN3CCN(C(=O)Cc4ccc(-n5cnnn5)cn4)C[C@H]3CO2)c(F)cc1F [Example 82, 2,4-difluoro-5-[(3R,9aS)-8-{[5-(1H-tetrazol-1-yl)pyridin-2-yl]acetyl}octahydropyrazino[2,1-c][1,4]oxazin-3-yl]benzonitrile] was tested. Which IC50 did it give?
The IC50 was 340 nM.

Which IC50 does the source give for N#Cc1c(F)ccc([C@H]2CN3CCN(C(=O)Cc4ccc(-n5cnnn5)cn4)C[C@H]3CO2)c1F [Example 86] here?
The IC50 was 290 nM.

For Cc1c([C@@H]2CN3CCN(C(=O)Cc4cccc(-n5cnnn5)n4)C[C@H]3CO2)ccc(F)c1C#N [Example 98, 6-fluoro-2-methyl-3-[(3R,9aS)-8-{[6-(1H-tetrazol-1-yl)pyridin-2-yl]acetyl}octahydropyrazino[2,1-c][1,4]oxazin-3-yl]benzonitrile], which IC50 is on record?
Its IC50 is 560 nM.

With Cc1c([C@@H]2CN3CCN(C(=O)Cc4ccnc(-n5cnnn5)c4)C[C@H]3CO2)ccc(F)c1C#N [Example 99, 6-fluoro-2-methyl-3-[(3R,9aS)-8-{[2-(1H-tetrazol-1-yl)pyridin-4-yl]acetyl}octahydropyrazino[2,1-c][1,4]oxazin-3-yl]benzonitrile] as the compound, how does the IC50 read?
The IC50 was 340 nM.

Cc1c([C@H]2CN3CCN(C(=O)Cc4ccnc(-n5cnnn5)c4)C[C@H]3CO2)ccc(F)c1C#N [Example 100] was tested. Which IC50 did it give?
Its IC50 is 190 nM.

With Cc1c([C@H]2CN3CCN(C(=O)Cc4cncc(-n5cnnn5)c4)C[C@H]3CO2)ccc(F)c1C#N [Example 101, 6-fluoro-2-methyl-3-[(3S,9aS)-8-{[5-(1H-tetrazol-1-yl)pyridin-3-y]acetyl}octahydropyrazino[2,1-c][1,4]oxazin-3-yl]benzonitrile] as the compound, how does the IC50 read?
Its IC50 is 180 nM.

How did the IC50 turn out when O=C(Cc1ccc(-n2cnnn2)nc1)N1CCN2C[C@@H](c3cccc(-n4cnnn4)c3)OC[C@@H]2C1 [Example 103, (3R,9aS)-3-[3-(1H-tetrazol-1-yl)phenyl]-8-{[6-(1H-tetrazol-1-vl)pvridin-3-yl]acetyl}octahydropyrazino[2,1-c][1,4]oxazine] was run?
Its IC50 is 340 nM.

Cc1c([C@@H]2CN3CCN(C(=O)Cc4ccc(-n5cnnn5)nc4)C[C@H]3CO2)cccc1-n1cnnn1 [Example 104, (3R,9aS)-3-[2-methyl-3-(1H-tetrazol-1-yl)phenyl]-8-{[6-(1H-tetrazol-1-yl)pyridin-3-yl]acetyl}octahydropyrazino[2,1-c][1,4]oxazine] was tested. Which IC50 did it give?
The IC50 was 480 nM.

How did the IC50 turn out when C[C@@H]1Cc2cc([C@]3(C)CN4CCN(C(=O)Cc5ccc(-n6cnnn6)nc5)C[C@H]4CO3)ccc2C(=O)O1 [Example 105, (3R)-3-methyl-6-[(3R,9a,S)-3-methyl-8-{[6-(1H-tetrazol-1-vl)pvridin-3-yl]acetyl}octahydropyrazino[2,1-c][1,4]oxazin-3-yl]-3,4-dihydro-1H-isochromen-1-one] was run?
Its IC50 is 350 nM.

For C[C@H]1Cc2cc([C@]3(C)CN4CCN(C(=O)Cc5ccc(-n6cnnn6)nc5)C[C@H]4CO3)ccc2C(=O)O1 [Example 106, (3S)-3-methyl-6-[(3R,9aS)-3-methyl-8-{[6-(1H-tetrazol-1-yl)pyridin-3-yl]acetyl}octahydropyrazino[2,1-c][1,4]oxazin-3-yl]-3,4-dihydro-1H-isochromen-1-one], which IC50 is on record?
The IC50 was 420 nM.

N#Cc1c(F)cc([C@@H]2CN3CCN(C(=O)Cc4ccc(-n5cnnn5)nc4)C[C@@H]3CO2)cc1F [Example 107, 2,6-difluoro-4-[(3R,9aR)-8-{[6-(1H-tetrazol-1-yl)pyridin-3-yl]acetyl}octahydropyrazino[2,1-c][1,4]oxazin-3-yl]benzonitrile] was tested. Which IC50 did it give?
The IC50 was 170 nM.

Same assay, conditions: Thallium Flux IC50

Which IC50 does the source give for N#Cc1cc([C@@H]2CN3CCN(C(=O)Cc4ccc(-n5cnnn5)nc4)C[C@H]3CO2)c(F)cc1F [Example 81, 2,4-difluoro-5-[(3R,9aS)-8-{[6-(1H-tetrazol-1-yl)pyridin-3-yl]acetyl}octahydropyrazino[2,1-c][1,4]oxazin-3-yl]benzonitrile] here?
The IC50 was 160 nM.

With Cc1c([C@H]2CN3CCN(C(=O)Cc4cnc(-n5cnnn5)cn4)C[C@H]3CO2)ccc2c1COC2=O [Example 83] as the compound, how does the IC50 read?
Its IC50 is 160 nM.

Cc1cc(-n2cnnn2)cnc1CC(=O)N1CCN2C[C@@H](c3ccc(F)c(C#N)c3C)OC[C@@H]2C1 [Example 84, 6-fluoro-2-methyl-3-[(3R,9aS)-8-{[3-methyl-5-(1H-tetrazol-1-vl)pvridin-2-yl]acetyl}octahydropyrazino[2,1-c][1,4]oxazin-3-yl]benzonitrile] was tested. Which IC50 did it give?
The IC50 was 230 nM.

Cc1cc(-n2cnnn2)cnc1CC(=O)N1CCN2C[C@H](c3ccc(F)c(C#N)c3C)OC[C@@H]2C1 [Example 85, 6-fluoro-2-methyl-3-[(3S,9aS)-8-{[3-methyl-5-(1H-tetrazol-1-vl)pvridin-2-yl]acetyl}octahydropyrazino[2,1-c][1,4]oxazin-3-yl]benzonitrile] was tested. Which IC50 did it give?
Its IC50 is 240 nM.

For N#Cc1c(F)ccc([C@H]2CN3CCN(C(=O)Cc4ccc(-n5cnnn5)nc4)C[C@@H]3CO2)c1F [Example 87, 2,6-difluoro-3-[(3S,9aR)-8-{[6-(1H-tetrazol-1-yl)pyridin-3-yl]acetyl}octahydropyrazino[2,1-c][1,4]oxazin-3-yl]benzonitrile], which IC50 is on record?
The IC50 was 220 nM.

How did the IC50 turn out when N#Cc1c(F)ccc([C@@H]2CN3CCN(C(=O)Cc4ccc(-n5cnnn5)nc4)C[C@@H]3CO2)c1F [Example 88, 2,6-difluoro-3-[(3R,9aR)-8-{[6-(1H-tetrazol-1-yl)pyridin-3-yl]acetyl}octahydropyrazino[2,1-c][1,4]oxazin-3-yl]benzonitrile] was run?
The IC50 was 90 nM.

For Cc1c(C#N)cccc1[C@H]1CN2CCN(C(=O)Cc3ccc(-n4cnnn4)nc3)C[C@H]2CO1 [Example 90, 2-methyl-3-[(3S,9aS)-8-{[6-(1H-tetrazol-1-yl)pyridin-3-yl]acetyl}octahydropyrazino[2,1-c][1,4]oxazin-3-yl]benzonitrile], which IC50 is on record?
The IC50 was 130 nM.

With Cc1c(C#N)cccc1[C@@H]1CN2CCN(C(=O)Cc3ccc(-n4cnnn4)nc3)C[C@H]2CO1 [Example 91, 2-methyl-3-[(3R,9aS)-8-{[6-(1H-tetrazol-1-yl)pyridin-3-yl]acetyl}octahydropyrazino[2,1-c][1,4]oxazin-3-yl]benzonitrile] as the compound, how does the IC50 read?
The IC50 was 60 nM.

For Cc1nc(-n2cnnn2)ccc1CC(=O)N1CCN2C[C@H](c3cccc(C#N)c3C)OC[C@@H]2C1 [Example 92, 2-methyl-3-[(3S,9aS)-8-{[2-methyl-6-(1H-tetrazol-1-yl)pyridin-3-yl]acetyl}octahydropyrazino[2,1-c][1,4]oxazin-3-yl]benzonitrile], which IC50 is on record?
The IC50 was 200 nM.

Cc1c([C@H]2CN3CCN(C(=O)Cc4cccc(-n5cnnn5)n4)C[C@H]3CO2)ccc(F)c1C#N [Example 97, 6-fluoro-2-methyl-3-[(3S,9aS)-8-{[6-(1H-tetrazol-1-yl)pyridin-2-yl]acetyl}octahydropyrazino[2,1-c][1,4]oxazin-3-yl]benzonitrile] was tested. Which IC50 did it give?
The IC50 was 250 nM.

How did the IC50 turn out when Cc1c([C@@H]2CN3CCN(C(=O)Cc4ccc(-n5cnnn5)nc4)C[C@@H]3CO2)ccc(F)c1C#N [Example 102, 6-fluoro-2-methyl-3-[(3R,9aR)-8-{[6-(1H-tetrazol-1-yl)pyridin-3-yl]acetyl}octahydropyrazino[2,1-c][1,4]oxazin-3-yl]benzonitrile] was run?
The IC50 was 150 nM.
